# Molecular target: HER2-Fc (HER2) (Homo sapiens, UniProt P04626)
# Conditions: SEM, n = 3
row,Kd,Substance
1,0.5 ± 0.15 µM,FN3 with RKPKSG grafted at residues 51-56 (His-tagged) [FN3-p4.4]
2,0.28 ± 0.023 µM,FN3 with YCGCEM grafted at residues 51-56 (His-tagged) [FN3-p1]
3,0.068 ± 0.014 µM,FN3 with YCICCM grafted at residues 51-56 (His-tagged) [FN3-p1.M.1]
4,0.11 ± 0.028 µM,FN3 with YCPVCM grafted at residues 51-56 (His-tagged) [FN3-p1.M.3]

# — PMC9052545 (RSC Advances, 2020)
